# Patent publication US8106055B2, “Substituted amide compounds” (Gruenenthal GmbH, priority 2007, dated 2012)
# How the values were obtained:
# human μ opiate receptor = target: T1, human μ opiate receptor (Homo sapiens, UniProt P35372); assay: Affinity for the human μ opiate receptor ([3H]-naloxone displacement, CHO-K1 receptor membrane preparation, SPA); type: binding; settings: test concentration of 1 μM
# T1 construct: purchased PerkinElmer Life Sciences, Zaventem, Belgium RB-HOM; host or cells: CHO-K1 cells (membrane preparation)
# T1 sequence (P35372 whole entry): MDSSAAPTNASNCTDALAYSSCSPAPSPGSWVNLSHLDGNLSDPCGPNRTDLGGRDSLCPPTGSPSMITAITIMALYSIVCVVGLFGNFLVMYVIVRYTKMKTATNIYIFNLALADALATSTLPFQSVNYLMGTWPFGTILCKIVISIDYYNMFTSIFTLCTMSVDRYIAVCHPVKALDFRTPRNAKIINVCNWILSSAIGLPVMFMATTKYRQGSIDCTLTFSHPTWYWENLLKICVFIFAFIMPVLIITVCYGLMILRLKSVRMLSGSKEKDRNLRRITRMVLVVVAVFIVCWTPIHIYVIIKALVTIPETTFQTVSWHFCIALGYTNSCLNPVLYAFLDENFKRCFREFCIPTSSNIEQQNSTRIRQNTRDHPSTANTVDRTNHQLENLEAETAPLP
# Method in brief: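 Scintillation proximity binding on human μ receptor membranes from CHO-K1 cells used 1 nmol/l [3H]-naloxone over 90 min at room temperature in 50 mmol/l Tris-HCl, 0.06% BSA. Percent inhibition was recorded at 1 μM.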
# [1] = target: T2, serotonin (5-HT) reuptake (Rattus norvegicus, UniProt P31652); assay: Inhibition of serotonin (5HT) reuptake in synaptosomes from rat brain; type: biochemical; settings: test concentration of 10 μM
# T2 construct: synaptosomes are freshly isolated from areas of the rat brain; from tissue; host or cells: rat brain synaptosomes (P2 fraction)
# T2 sequence (P31652 whole entry): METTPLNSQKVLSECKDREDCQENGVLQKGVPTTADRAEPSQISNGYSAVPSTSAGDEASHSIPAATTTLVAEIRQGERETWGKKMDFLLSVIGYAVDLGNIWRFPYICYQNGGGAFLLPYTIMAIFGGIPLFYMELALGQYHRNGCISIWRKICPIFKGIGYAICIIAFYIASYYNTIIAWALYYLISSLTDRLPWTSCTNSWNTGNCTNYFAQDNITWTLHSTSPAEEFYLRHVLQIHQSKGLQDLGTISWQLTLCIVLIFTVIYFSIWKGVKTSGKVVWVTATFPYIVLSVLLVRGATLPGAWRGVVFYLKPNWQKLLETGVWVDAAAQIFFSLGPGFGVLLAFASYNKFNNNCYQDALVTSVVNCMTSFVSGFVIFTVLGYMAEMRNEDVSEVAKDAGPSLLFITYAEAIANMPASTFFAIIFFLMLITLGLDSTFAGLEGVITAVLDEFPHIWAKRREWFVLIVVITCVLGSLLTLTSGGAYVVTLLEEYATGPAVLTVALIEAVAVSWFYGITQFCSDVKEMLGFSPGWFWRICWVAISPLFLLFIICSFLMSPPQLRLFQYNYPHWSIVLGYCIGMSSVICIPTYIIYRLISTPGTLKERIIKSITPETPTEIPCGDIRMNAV
# Method in brief: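 Freshly isolated rat brain synaptosomes (P2 fraction) used for 5-HT reuptake. Test compound at 10 μM, activity given as % inhibition.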
SMILES,"μ (binding on the μ opioid receptor, % inhibition) (human μ opiate receptor) [%]","5-HT (inhibition of reuptake of serotonin, % inhibition) [1] [%]"
COc1cc(C)c(S(=O)(=O)N(C)CCOCC(=O)NCCC2CCC(C(c3ccc(F)cc3)N(C)C)CC2)c(C)c1 (stereo not drawn) [Example 392],57,89
CN(C)C(c1ccc(F)cc1)C1CCC(CCNC(=O)COCCN(C)S(=O)(=O)c2ccc(OC(F)(F)F)cc2)CC1 (stereo not drawn) [Example 446],51,90
CN(C)C(c1ccc(F)cc1)C1CCC(CNC(=O)COCCN(C)S(=O)(=O)c2ccc(Cl)cc2)CC1 (stereo not drawn) [Example 399],52,89
CN(C)C(c1ccc(Cl)cc1)C1CCC(CCNC(=O)COC2CCN(S(=O)(=O)c3ccccc3)C2)CC1 (stereo not drawn) [Example 375],53,88
Cc1ccc(S(=O)(=O)N(C)CCOCC(=O)NC2CCC(C(c3ccc(F)cc3)N(C)C)CC2)cc1 (stereo not drawn) [Example 448],41,94
CN(C)C(c1ccc(F)cc1)C1CCC(CNC(=O)COCCN(C)S(=O)(=O)c2ccc(F)cc2)CC1 (stereo not drawn) [Example 400],55,103
Cc1ccc(S(=O)(=O)N2CCC(OCC(=O)NC3CCC(C(c4ccc(F)cc4)N(C)C)CC3)C2)cc1 (stereo not drawn) [Example 371],57,85
COc1ccc(S(=O)(=O)N2CCCCC2COCC(=O)NCC2CCC(C(c3ccc(Cl)cc3)N(C)C)CC2)cc1OC (stereo not drawn) [Example 367],60,89
CN(C)C(c1ccc(F)cc1)C1CCC(CCNC(=O)COCCN(C)S(=O)(=O)c2ccc(Cl)cc2)CC1 (stereo not drawn) [Example 377],59,88
COc1cc(C)c(S(=O)(=O)N(CCOCC(=O)NCCC2CCC(C(c3cccc(F)c3)N(C)C)CC2)Cc2ccccc2)c(C)c1C (stereo not drawn) [Example 436],57,88
COc1cc(C)c(S(=O)(=O)N2CCC(OCC(=O)NC3CCC(C(c4ccc(F)cc4)N(C)C)CC3)C2)c(C)c1C (stereo not drawn) [Example 365],49,90
COc1ccc(S(=O)(=O)N(C)CCOCC(=O)NCC2CCC(C(c3ccc(Cl)cc3)N(C)C)CC2)cc1OC (stereo not drawn) [Example 379],45,81
COc1ccc(S(=O)(=O)N2Cc3ccccc3CC2COCC(=O)NCCC2CCC(C(c3ccc(Cl)cc3)N(C)C)CC2)cc1 (stereo not drawn) [Example 374],59,90
COc1ccc(S(=O)(=O)N2CCCCC2CCOCC(=O)NCCC2CCC(C(c3ccc(F)cc3)N(C)C)CC2)cc1 (stereo not drawn) [Example 398],59,97
CN(C)C(c1ccc(Cl)cc1)C1CCC(CCNC(=O)COCCN(C)S(=O)(=O)c2c(Cl)cc(Cl)cc2Cl)CC1 (stereo not drawn) [Example 442],54,91
COc1cc(C)c(S(=O)(=O)N(CCOCC(=O)NC2CCC(C(c3cccc(F)c3)N(C)C)CC2)Cc2ccccc2)c(C)c1 (stereo not drawn) [Example 372],59,89
Cc1cc(C)c(S(=O)(=O)N(C)CCOCC(=O)NCCC2CCC(C(c3ccc(Cl)cc3)N(C)C)CC2)c(C)c1 (stereo not drawn) [Example 416],53,103

SMILES,"μ (binding on the μ opioid receptor, % inhibition) (human μ opiate receptor) [%]","5-HT (inhibition of reuptake of serotonin, % inhibition) [1] [%]"
Cc1cc(C)c(S(=O)(=O)N2CCC(OCC(=O)NCC3CCC(C(c4ccc(Cl)cc4)N(C)C)CC3)C2)c(C)c1 (stereo not drawn) [Example 393],55,70
CN(C)C(c1ccc(Cl)cc1)C1CCC(CCNC(=O)COC2CCCN(S(=O)(=O)c3ccccc3)C2)CC1 (stereo not drawn) [Example 395],54,96
CN(C)C(c1ccc(F)cc1)C1CCC(CNC(=O)COC2CCN(S(=O)(=O)c3ccc(Cl)cc3Cl)C2)CC1 (stereo not drawn) [Example 391],56,85
CN(C)C(c1ccc(Cl)cc1)C1CCC(CCNC(=O)COC2CCN(S(=O)(=O)c3ccc(F)cc3)C2)CC1 (stereo not drawn) [Example 440],47,95
CN(C)C(c1ccc(Cl)cc1)C1CCC(CCNC(=O)COC2CCN(S(=O)(=O)c3ccccc3)CC2)CC1 (stereo not drawn) [Example 443],45,96
COc1cc(C)c(S(=O)(=O)N2CCN(CCOCC(=O)NCCC3CCC(C(c4ccc(F)cc4)N(C)C)CC3)CC2)c(C)c1C (stereo not drawn) [Example 387],53,95
CN(C)C(c1ccc(F)cc1)C1CCC(CNC(=O)COC2CCN(S(=O)(=O)c3cccc(C(F)(F)F)c3)C2)CC1 (stereo not drawn) [Example 402],53,77
COc1cc(C)c(S(=O)(=O)N(CCOCC(=O)NCC2CCC(C(c3cccc(F)c3)N(C)C)CC2)Cc2ccccc2)c(C)c1C (stereo not drawn) [Example 414],64,67
COc1cc(C)c(S(=O)(=O)N(C)CCOCC(=O)NC2CCC(C(c3ccc(F)cc3)N(C)C)CC2)c(C)c1 (stereo not drawn) [Example 422],43,81
COc1ccc(S(=O)(=O)N2CCCC2COCC(=O)NCCC2CCC(C(c3ccc(F)cc3)N(C)C)CC2)cc1 (stereo not drawn) [Example 409],54,97
CN(C)C(c1ccc(Cl)cc1)C1CCC(CNC(=O)COCCN(C)S(=O)(=O)c2ccc(OC(F)(F)F)cc2)CC1 (stereo not drawn) [Example 411],60,91
CN(C)C(CCc1ccccc1)C1CCC(CNC(=O)COCC2CCCN2S(=O)(=O)c2ccc(Cl)c(Cl)c2)CC1 (stereo not drawn) [Example 415],55,88
Cc1ccc(S(=O)(=O)N2CCC(OCC(=O)NCC3CCC(C(c4ccc(F)cc4)N(C)C)CC3)C2)cc1 (stereo not drawn) [Example 447],44,95
CN(C)C(c1cccc(F)c1)C1CCC(CCNC(=O)COC2CCN(S(=O)(=O)c3ccccc3)CC2)CC1 (stereo not drawn) [Example 444],56,96
COc1cc(C)c(S(=O)(=O)N2CCCC(OCC(=O)NCC3CCC(C(c4ccc(F)cc4)N(C)C)CC3)C2)c(C)c1C (stereo not drawn) [Example 418],51,98
COc1cc(C)c(S(=O)(=O)N2CCCC(OCC(=O)NC3CCC(C(c4ccc(F)cc4)N(C)C)CC3)C2)c(C)c1C (stereo not drawn) [Example 435],48,91
